The values that follow are results of earlier work, collected in patent publication US7666887B2, “Stable, neutral pH, VOC-free biocidal compositions of 1,2-benzisothiazolin-3-one” (ISP Investments, Inc., priority 2004, dated 2010).

For data set [1] the following is noted: in some individuals.

`O=c1[nH]sc2ccccc12` [BIT, 1,2-benzisothiazolin-3-one]: the aqueous solubility entry is on record as “low”. Moreover, the sensitization result in data set [1] is on record as “can cause sensitization”.
